These results are taken from patent US10758513B2, “Modulators of mitochondrial protein import” (THE REGENTS OF THE UNIVERSITY OF CALIFORNIA, priority 2011, dated 2020).

Converted amounts (≈) assume the structure as drawn. “Also recorded” adds a separate entry of the source.

One data set has as its system tim9-3 mutant. Description: Yeast growth inhibition (MIC50), tim9-3 mutant. The class given is cell-based. Particulars: Saccharomyces cerevisiae; disrupted for prd5 and snq2.
Data set [1] relates to tim10-1 tim9S mitochondria. Description: In vitro import of radiolabeled precursors into tim10-1 tim9S mitochondria. In kind it is biochemical, yeast. The procedure: (§1) Prior to import into purified mitochondria, ^35S-methionine and cysteine labeled proteins were generated with TNT Quick Coupled Transcription/Translation kits (Promega) and plasmids carrying the gene of interest. Transcription of genes was driven by either a T7 or SP6 promoter. Import reactions were conducted according to established methods. After frozen mitochondria aliquots were thawed and added to the import buffer at a final concentration of 100 μg/mL, drug or DMSO vehicle was added as indicated. A final vehicle concentration of 1% was used in all experiments. Following 15 minute incubation at 25° C., import reactions were initiated by the addition of […] of translation mix. Aliquots were removed at intervals during the reaction timecourse and import was terminated with either cold buffer, 25 μg/mL trypsin, or a combination of both. If trypsin was added to digest unimported precursor protein, soybean trypsin inhibitor (STI) was subsequently added in excess after 15 minute incubation on ice. After a final recovery of by centrifugation (8,000×g, 5 minutes), mitochondria were disrupted in Laemmli sample buffer. Imports of membrane proteins (AAC, PiC, Tom40, Tim22, and Tim23) included a carbonate extraction step to remove proteins that had not inserted into the membrane (Koehler C M, et al. (1998), Science 279:369-373). Samples from import reaction time points were resolved by SDS polyacrylamide gel electrophoresis (SDSPAGE) and gels were dried prior to exposing to film.

For the next data set, the system named is HeLa cells. Description: MTT cell viability assay in HeLa cells (MitoBloCK-1). As to conditions: 25 μM and 50 μM, 24 hours. In kind it is cell-based. The procedure:
Measurements of cell viability/toxicity were made with a MTT based toxicology assay kit (Sigma-Aldrich). HeLa cells were grown in 24-well tissue culture dishes to 80% confluency. […] Following drug treatment, cells were rinsed with phosphate buffered saline and incubated with complete media with MTT solution supplement for additional 4 hours as described in manufacturer's protocols. This media was removed and 500 μL of MTT solubilization solution was added to dissolve the formazan crystals. The formazan absorbance was measured at OD=570 nm on a Wallac Victor plate reader (Perkin Elmer) along with a turbidity measurement at OD=630 nm. After turbidity subtraction, the percent viability of each cell sample was calculated as: [(absorbance of vehicle treated cells−absorbance of drug treated cells)/(absorbance of vehicle treated cells)]×100.
(In general: Tetrazolium dyes change colour on reduction, which living cells bring about.)

A further data set relates to WT mitochondria. Description: In vitro import of AAC into wild-type mitochondria. In kind it is biochemical, yeast. The procedure: as §1, with “Samples from import reaction time points were resolved by SDS polyacrylamide gel electrophoresis (SDSPAGE) and gels were dried prior to exposing to film.” left out
A further data set concerns Tim9-Tim10 complex. The data set can be described thus: Crosslinking and immunoprecipitation of AAC with Tim9. As to conditions: 25 μM MitoBloCK-1; BMH crosslinker. The class given is biochemical, yeast. The procedure:
Crosslinking and immunoprecipitation experiments were derived from procedures previously utilized (3) with the inclusion of MitoBloCK-1 or DMSO. Following import, a portion of the reaction was subjected to crosslinking with 0.5 mM bis-maleimidohexane (BMH) for 30 minutes on ice. After quenching crosslinking reactions with 1 mM β-mercaptoethanol, a fraction of each sample was subjected to immunoprecipitation with polyclonal antibodies against either Tim9, Tom22, or Tom40. For each immunoprecipitation, 20 μL of antisera was bound to […], of protein A-sepharose slurry according to established protocols (Murphy M P, et al., (2001), Mol Cell Biol 21:6132-6138).

Data set [2] deals with tim10-1 tim9S mitochondria. The data set can be described thus: Respiration (oxygen electrode) of tim10-1 tim9S mitochondria. The class given is biochemical, yeast. As to conditions: NADH; 25 μM MitoBloCK-1; CCCP as control. The procedure: Oxygen consumption of […] mitochondria was measured using methods previously described (8). Briefly, purified […] mitochondria aliquots (25 mg/mL) were thawed on ice and tested within 2 hours. A Clark-type oxygen electrode in a stirred, thermostatically controlled 1.5-ml chamber at 25° C. (Oxytherm; Hansatech) facilitated measurement. […] Consumption rate was monitored for approximately 2 min.

Data set [3] in a line: Stability of MitoBloCK-6 in screening buffer by LC-MS. The class given is physicochemical. As to conditions: pH 3.4, 6.5, 7.4; room temperature, 1 hour. Here is the method:
MitoBloCK-6 at a final concentration of 3 mM was incubated with screening buffer (30 mM Hepes, 100 mM NaCl, 1 mM EDTA) at pH 3.4, 6.5, and 7.4 in a reaction volume of 100 μl at room temperature for 1 hour. The sample was injected into the LC-MS and retention was monitored. As a control, 20 mM MitoBloCK-6 in 1% DMSO was also analyzed.
LC-MS experiments were carried out on a Waters Acquity UPLC connected to a Waters LCT-Premier XE Time of Flight Instrument controlled by MassLynx 4.1 software. The mass spectrometer was equipped with a Multi-Mode Source operated in the electrospray mode. Briefly, samples of MitoBloCK-6, ES-1, and ES-2 were separated using an Acquity BEH C18 1.7 um column (2.1×50 mm, Waters) and were eluted with a gradient of 0.5 mL/min water/acetonitrile with 2, 80, and 95% acetonitrile at 0.5, 2.5 and 3.5 min, respectively. Mass spectra were recorded from 80 to 2000 Daltons. All solvents were LC-MS/MS Grade and purchased from Fisher Scientific.

The MIC50 is an inhibitory concentration at the 50% level, which refers to growth in some studies and to a panel of isolates in others. High values mean lower susceptibility, low ones higher susceptibility. For the compound `NC(=S)N/N=C/c1c(O)c(Br)cc2oc3c(c12)CCCC3` [MitoBloCK-1], in the data set on tim9-3 mutant, the MIC50 worked out at 11 µM (≈ 4.05 µg/mL). The “protease sensitivity of AAC precursor” value in data set [1] (presence of a membrane potential) is on record as “sensitive to protease”. In data set [1] (tim10-1 tim9S mitochondria), the “import of Hsp60 (TIM23 pathway)” value is “did not impair import”, the “import of Mia40 (Mia40/Erv1 pathway)” value is recorded as “not inhibited”, the “import of Su9-DHFR (TIM23 pathway)” value is recorded as “did not impair import” and the “import of Tafazzin” value is given as “import was inhibited”. In data set [1] (tim10-1 tim9S mitochondria), the “import of Tim9 (Mia40/Erv1 pathway)” value was “not inhibited”, the “import of Tim10 (Mia40/Erv1 pathway)” value is recorded as “not inhibited”, the “import of Tim22” value is given as “impaired” and the “import of Tim23” value is recorded as “but not Tim23 was impaired”. In data set [1] (tim10-1 tim9S mitochondria), the “import of Tom40” value was “inhibited the import”, the “import of cyt b2-DHFR (TIM23 pathway)” value is listed as “did not impair import” and the “import of phosphate carrier (PiC)” value was “inhibited the import”. For the same compound, in data set [1] (tim10-1 tim9S mitochondria, 1 μM MitoBloCK-1 or greater), the “import of AAC” value is reported as “markedly decreased”. In the data set on HeLa cells, the “cell viability (MTT)” value is “significantly decreased in a dose-responsive manner”. The “import of AAC into WT mitochondria” value in the data set with WT mitochondria is “did not inhibit import; also recorded: does not inhibit AAC import”. Also, the “crosslinked Tim9-AAC product after immunoprecipitation” value in the data set with Tim9-Tim10 complex is “decreased”. For the same compound, the rate of respiration entry in data set [2] is recorded as “did not significantly alter the rate of respiration”.
As for `Oc1c(Cl)cc(Cl)cc1/C=N/c1ccc(Nc2ccccc2)cc1` [MitoBloCK-6], the “stability by LC-MS” value in data set [3] is “stable over this pH range”.
